Values quoted from earlier work as cited in PMC10517971, “An inverse agonist of orphan receptor GPR61 acts by a G protein-competitive allosteric mechanism” (Nature Communications, 2023).

Columns and labels:
GPR61 = test system: GPR61; parameters: method as in PMID 14607265, PMID 31352450; conditions: cited from earlier work
[1] = cited from earlier work

**Q.** For `CCCCCCCCCOc1ccc2[nH]cc(CCN)c2c1` [Compound 5-NOT, 5-nonyloxy-tryptamine], which “potency as GPR61 inverse agonist” value (GPR61) is on record?
**A.** low potency

**Q.** What about the selectivity (GPR61) of the same compound?
**A.** lack of selectivity

**Q.** What about the solubility [1] of the same compound?
**A.** low solubility
